What was measured:
[1] = test system: MDA-MB 231 (human breast cancer); assay: Methyl-Tetrazolium viability assay, MDA-MB 231; assay type: cell-based; conditions: for MTT 24 h / MTT 48 h / MTT 72 h: Run 3 average
Excerpt: (§1) Three different viability assays were chosen to complement each other and yielded results dependent on concentration and cell line: the Methyl Tetrazolium dye assay, the Sulforhodamine B fluorescent dye assay, and the Crystal Violet dye assay.
The Methyl-Tetrazolium dye assay measures the activity of enzymes in mitochondria. The dye precursor is taken up by cells, where it undergoes reduction to the purple formazan. It measures only the mitochondrial activity and, thus, it is not always a reliable indication of whether the cells themselves are alive or dead, since even a recently dead cell has […] enzyme activity in mitochondria. Intracellular glucose concentration, pH, and time before assay all affect the measurements.
(§2) The Methyl Tetrazolium, Sulforhodamine B, and Crystal Violet assays were used to assess cell viabilities. The incubation times were 24 hours, 48 hours, and 72 hours. The Nerium oleander extract Anvirzel™ (a hot water extract of oleander obtained from Salud Integral, Honduras) was tested in concentrations ranging from 0.01 ng/mL to 10 ng/mL.
(§3) Cells were detached by trypsinization (Trypsin-0.25% EDTA, Invitrogen, 25200-072) during the logarithmic phase of culture growth and plated in 96-well plates (18.000 cells/well) (Corning, Costar 359) in a final volume of 200 μl of medium per well. […] The absorbance was measured after 24 hours, 48 hours, and 72 hours of incubation.
For the Methyl-Tetrazolium assay, the dye (Sigma, M2128; 5 mg/mL, diluted in phosphate-buffered saline) was added to each well and plates were incubated for 3 hours at 37° C. After the end of the incubation period, the medium was discarded and the cells were rinsed with phosphate-buffered saline. Finally, the formazan crystals were dissolved in dimethylsulphoxide (Sigma, D4540).
(§4) The optical density of each plate was measured on a μQuant spectrophotometer and the data were analyzed with Gen5 software (μQuant Biomolecular Spectrophotometer MQX200 and Gen5™ Microplate Data Collection & Analysis software, BioTek® Instruments. Inc, April 2008). Absorbance was measured at 570 nm for all assays and a second wavelength was measured in order to subtract noise. For the Methyl-Tetrazolium assay this second wavelength was 630 nm and for the Sulforhodamine B and Crystal Violet assays it was 690 nm.

[2] = test system: CALU-1 (non-small cell lung carcinoma); assay: Sulforhodamine B viability assay, CALU-1; assay type: cell-based, human
Excerpt: as §1
The Sulforhodamine B and Crystal Violet assays provide information about protein and were used to complement the Methyl-Tetrazolium dye assay. […] It is used for the quantification of cellular proteins of cultured cells. The assay using Crystal Violet, a dye that binds electrostatically to proteins and stains DNA, provides a reliable, simple assay for measuring viability of cells.
as §2, §3
For the Sulforhodamine B assay, 96-well plates were fixed by 10% trichloroacetic acid (Fluka, 91228) and were incubated at 4° C. for 1 hour. Afterwards, plates were rinsed with water and cells were stained with 0.4% Sulforhodamine B (Sigma, 341738), dissolved in 1% acetic acid (Carlo Ebra, 401422) for 15 minutes at room temperature (RT). The unbound stain was washed twice with 1% acetic acid. Finally, 10 mM Tris Buffer pH 10.5 (Sigma, T6791) was added to dissolve the dye.
as §4

N.N.[Cl][Pt][Cl] [cisplatin]
MTT 24 h Average ([1]; Run 1, 0.1 μg/ml CDDP): 0.019 | MTT 48 h Average ([1]; Run 1, 0.1 μg/ml CDDP): 0.002 | MTT 72 h Average ([1]; Run 1, 0.1 μg/ml CDDP): 0.04 | MTT 24 h Average ([1]; Run 1, 1 μg/ml CDDP): 0.007 | MTT 48 h Average ([1]; Run 1, 1 μg/ml CDDP): 0.004 | MTT 72 h Average ([1]; Run 1, 1 μg/ml CDDP): 0.006 | MTT 24 h Average ([1]; Run 1, 10 μg/ml CDDP): 0.015 | MTT 48 h Average ([1]; Run 1, 10 μg/ml CDDP): 0.007 | MTT 72 h Average ([1]; Run 1, 10 μg/ml CDDP): 0.015 | MTT 24 h Average ([1]; Run 1, 100 μg/ml CDDP): 0.008 | MTT 48 h Average ([1]; Run 1, 100 μg/ml CDDP): 0.008 | MTT 72 h Average ([1]; Run 1, 100 μg/ml CDDP): 0.006 | MTT 24 h Average ([1]; Run 2, 0.1 μg/ml CDDP): 0.044 | MTT 48 h Average ([1]; Run 2, 0.1 μg/ml CDDP): 0.063 | MTT 72 h Average ([1]; Run 2, 0.1 μg/ml CDDP): 0.106 | MTT 24 h Average ([1]; Run 2, 1 μg/ml CDDP): 0.009 | MTT 48 h Average ([1]; Run 2, 1 μg/ml CDDP): 0.007 | MTT 72 h Average ([1]; Run 2, 1 μg/ml CDDP): 0.005 | MTT 24 h Average ([1]; Run 2, 10 μg/ml CDDP): 0.039 | MTT 48 h Average ([1]; Run 2, 10 μg/ml CDDP): 0.049 | MTT 72 h Average ([1]; Run 2, 10 μg/ml CDDP): 0.07 | MTT 24 h Average ([1]; Run 2, 100 μg/ml CDDP): 0.008 | MTT 48 h Average ([1]; Run 2, 100 μg/ml CDDP): 0.006 | MTT 72 h Average ([1]; Run 2, 100 μg/ml CDDP): 0.002 | MTT 24 h ([1]; 0.1 μg/ml CDDP): 0.083 | MTT 48 h ([1]; 0.1 μg/ml CDDP): 0.035 | MTT 72 h ([1]; 0.1 μg/ml CDDP): 0.046 | MTT 24 h ([1]; 1 μg/ml CDDP): 0.013 | MTT 48 h ([1]; 1 μg/ml CDDP): 0.008 | MTT 72 h ([1]; 1 μg/ml CDDP): 0.008 | MTT 24 h ([1]; 10 μg/ml CDDP): 0.046 | MTT 48 h ([1]; 10 μg/ml CDDP): 0.057 | MTT 72 h ([1]; 10 μg/ml CDDP): 0.068 | MTT 24 h ([1]; 100 μg/ml CDDP): 0.012 | MTT 48 h ([1]; 100 μg/ml CDDP): 0.012 | MTT 72 h ([1]; 100 μg/ml CDDP): 0.01 | Average SRB 24 h ([2]; CALU-1 Run 1, 0.1 μg/ml CDDP): 1.457 | Average SRB 48 h ([2]; CALU-1 Run 1, 0.1 μg/ml CDDP): 1.939 | Average SRB 72 h ([2]; CALU-1 Run 1, 0.1 μg/ml CDDP): 1.598 | Average SRB 24 h ([2]; CALU-1 Run 1, 1 μg/ml CDDP): 1.438 | Average SRB 48 h ([2]; CALU-1 Run 1, 1 μg/ml CDDP): 1.991 | Average SRB 72 h ([2]; CALU-1 Run 1, 1 μg/ml CDDP): 1.5 | Average SRB 24 h ([2]; CALU-1 Run 1, 10 μg/ml CDDP): 1.401 | Average SRB 48 h ([2]; CALU-1 Run 1, 10 μg/ml CDDP): 1.563 | Average SRB 72 h ([2]; CALU-1 Run 1, 10 μg/ml CDDP): 1.108 | Average SRB 24 h ([2]; CALU-1 Run 1, 100 μg/ml CDDP): 1.348 | Average SRB 48 h ([2]; CALU-1 Run 1, 100 μg/ml CDDP): 1.521 | Average SRB 72 h ([2]; CALU-1 Run 1, 100 μg/ml CDDP): 1.299 | Average SRB 24 h ([2]; CALU-1 Run 2, 0.1 μg/ml CDDP): 1.437 | Average SRB 48 h ([2]; CALU-1 Run 2, 0.1 μg/ml CDDP): 1.79 | Average SRB 72 h ([2]; CALU-1 Run 2, 0.1 μg/ml CDDP): 2.674 | Average SRB 24 h ([2]; CALU-1 Run 2, 1 μg/ml CDDP): 1.725 | Average SRB 48 h ([2]; CALU-1 Run 2, 1 μg/ml CDDP): 1.837 | Average SRB 72 h ([2]; CALU-1 Run 2, 1 μg/ml CDDP): 2.563 | Average SRB 24 h ([2]; CALU-1 Run 2, 10 μg/ml CDDP): 1.48 | Average SRB 48 h ([2]; CALU-1 Run 2, 10 μg/ml CDDP): 1.702 | Average SRB 72 h ([2]; CALU-1 Run 2, 10 μg/ml CDDP): 2.434 | Average SRB 24 h ([2]; CALU-1 Run 2, 100 μg/ml CDDP): 1.318 | Average SRB 48 h ([2]; CALU-1 Run 2, 100 μg/ml CDDP): 1.541 | Average SRB 72 h ([2]; CALU-1 Run 2, 100 μg/ml CDDP): 1.575 | Average SRB 24 h ([2]; CALU-1 Run 3, 0.1 μg/ml CDDP, 24 h): 1.492 | Average SRB 48 h ([2]; CALU-1 Run 3, 0.1 μg/ml CDDP, 48 h): 1.491 | Average SRB 72 h ([2]; CALU-1 Run 3, 0.1 μg/ml CDDP, 72 h): 1.835 | Average SRB 24 h ([2]; CALU-1 Run 3, 1 μg/ml CDDP, 24 h): 1.295 | Average SRB 48 h ([2]; CALU-1 Run 3, 1 μg/ml CDDP, 48 h): 1.463 | Average SRB 72 h ([2]; CALU-1 Run 3, 1 μg/ml CDDP, 72 h): 1.452 | Average SRB 24 h ([2]; CALU-1 Run 3, 10 μg/ml CDDP, 24 h): 1.139 | Average SRB 48 h ([2]; CALU-1 Run 3, 10 μg/ml CDDP, 48 h): 1.152 | Average SRB 72 h ([2]; CALU-1 Run 3, 10 μg/ml CDDP, 72 h): 1.193 | Average SRB 24 h ([2]; CALU-1 Run 3, 100 μg/ml CDDP, 24 h): 0.98 | Average SRB 48 h ([2]; CALU-1 Run 3, 100 μg/ml CDDP, 48 h): 1.449 | Average SRB 72 h ([2]; CALU-1 Run 3, 100 μg/ml CDDP, 72 h): 1.264

— patent US20190343908A1, “Therapeutic Combination for the Treatment of Cancer” (Nerium Biotechnology Inc., priority 2011, published 2019)
